Ki data for 20 compounds are collected here from US8586617B2, “Aminomethyl-4-imidazoles” (Hoffmann-La Roche Inc., priority 2006, dated 2013).

Each structure is given as a SMILES string.

In one assay the target is TAAR1 (Mus musculus (Mouse), UniProt Q923Y8). Nature of the assay: TAAR1 radioligand binding assay ([3H]-rac-2-(1,2,3,4-tetrahydro-1-naphthyl)-2-imidazoline, membranes of stably transfected HEK293 cells).
Sequence of TAAR1 (Q923Y8 whole entry): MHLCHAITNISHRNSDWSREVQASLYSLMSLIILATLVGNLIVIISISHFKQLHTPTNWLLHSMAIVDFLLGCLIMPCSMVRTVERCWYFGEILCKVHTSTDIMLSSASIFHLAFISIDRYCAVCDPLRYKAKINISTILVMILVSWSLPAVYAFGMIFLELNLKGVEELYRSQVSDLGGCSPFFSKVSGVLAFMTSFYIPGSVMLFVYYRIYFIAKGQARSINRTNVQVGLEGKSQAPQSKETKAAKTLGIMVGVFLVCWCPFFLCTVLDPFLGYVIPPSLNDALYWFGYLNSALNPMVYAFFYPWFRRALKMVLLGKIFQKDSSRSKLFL
Settings: not given
With `CCN(Cc1cnc[nH]1)c1cccc(C(F)(F)F)n1` [Example 251, Ethyl-(1H-imidazol-4-ylmethyl)-(6-trifluoromethyl-pyridin-2-yl)-amine], the Ki stood at 0.009 µM.

Staying with this assay, now noted: read-out: Ki (μM) mouse; mouse TAAR1; radioligand [3H]-rac-2-(1,2,3,4-tetrahydro-1-naphthyl)-2-imidazoline at 60 nM; 4° C., 30 minutes.
For `CCN(Cc1cnc[nH]1)c1cccc(OCc2ccccc2)c1` [Example 192, (3-Benzyloxy-phenyl)-ethyl-(3H-imidazol-4-ylmethyl)-amine], the Ki is 0.001 µM.
Turning to `CCN(Cc1cnc[nH]1)c1cccc(OC)c1` [Example 193, Ethyl-(3H-imidazol-4-ylmethyl)-(3-methoxy-phenyl)-amine], the Ki amounted to 0.008 µM.
For `CCN(Cc1cnc[nH]1)c1ccc(F)c(OC)c1` [Example 194, Ethyl-(4-fluoro-3-methoxy-phenyl)-(3H-imidazol-4-ylmethyl)-amine], the Ki came to 0.0048 µM.
With `CCN(Cc1cnc[nH]1)c1cccc(OC(F)F)c1` [Example 195, (3-Difluoromethoxy-phenyl)-ethyl-(3H-imidazol-4-ylmethyl)-amine], the inhibition constant Ki was found to be 0.0042 µM.
On the same count and under the same terms, the result for `Clc1cccc(Oc2cccc(NCc3cnc[nH]3)c2)c1` [Example 200, [3-(3-Chloro-phenoxy)-phenyl]-(3H-imidazol-4-ylmethyl)-amine] reads 0.0028 µM; that for `Fc1ccc(NCc2cnc[nH]2)cc1Oc1ccccc1` [Example 202, (4-Fluoro-3-phenoxy-phenyl)-(3H-imidazol-4-ylmethyl)-amine], 0.0084 µM; that for `COc1cc(N(Cc2cnc[nH]2)C(C)C)ccc1Cl` [Example 204, (4-Chloro-3-methoxy-phenyl)-(3H-imidazol-4-ylmethyl)-isopropyl-amine], 0.005 µM.
Regarding `CC(C)N(Cc1cnc[nH]1)c1cccc(Oc2cccc(Cl)c2)c1` [Example 206, [3-(3-Chloro-phenoxy)-phenyl]-(3H-imidazol-4-ylmethyl)-isopropyl-amine], the Ki is 0.005 µM.
On to `CC(C)N(Cc1cnc[nH]1)c1cccc(COc2ccccc2)c1` [Example 207, (3H-Imidazol-4-ylmethyl)-isopropyl-(3-phenoxymethyl-phenyl)-amine], for which the Ki came to 0.002 µM.
Same read-out and setting: next, `CC(C)N(Cc1cnc[nH]1)c1ccc(F)c(Oc2ccccc2)c1` [Example 208, (4-Fluoro-3-phenoxy-phenyl)-(3H-imidazol-4-ylmethyl)-isopropyl-amine]: 0.003 µM; `Brc1cccc(NCc2cnc[nH]2)c1` [Example 225, (3-Bromo-phenyl)-(3H-imidazol-4-ylmethyl)-amine]: 0.001 µM.
`FC(F)(F)c1cc(Br)cc(NCc2cnc[nH]2)c1` [Example 226, (3-Bromo-5-trifluoromethyl-phenyl)-(3H-imidazol-4-ylmethyl)-amine]: the Ki was determined as 0.001 µM.
With `CC(C)c1cccc(NCc2cnc[nH]2)c1` [Example 228, (3H-Imidazol-4-ylmethyl)-(3-isopropyl-phenyl)-amine], the Ki amounted to 0.002 µM.
Take `CCN(Cc1cnc[nH]1)c1nc(Cl)cc(Cl)n1` [Example 237, (4,6-Dichloro-pyrimidin-2-yl)-ethyl-(1H-imidazol-4-ylmethyl)-amine]: the inhibitory constant (Ki) was determined as 0.004 µM.
`CC(C)N(Cc1cnc[nH]1)c1cccc(Br)c1` [Example 242, (3-Bromo-phenyl)-(3H-imidazol-4-ylmethyl)-isopropyl-amine]: the Ki turned out to be 0.001 µM.
Take `CC(C)N(Cc1cnc[nH]1)c1cccc(Br)n1` [Example 244, (6-Bromo-pyridin-2-yl)-(3H-imidazol-4-ylmethyl)-isopropyl-amine]: the Ki is 0.004 µM.
As to `CCN(Cc1cnc[nH]1)c1ccc(Cl)c(Cl)c1` [Example 247, (3,4-Dichloro-phenyl)-ethyl-(1H-imidazol-4-ylmethyl)-amine], the Ki was 0.001 µM.
On to `CCN(Cc1cnc[nH]1)c1cccc(Br)c1` [Example 275, (3-Bromo-phenyl)-ethyl-(3H-imidazol-4-ylmethyl)-amine], for which the Ki came out at 0.001 µM.
As to `Fc1cc(F)cc(NCc2cnc[nH]2)c1` [Example 277, (3,5-Difluoro-phenyl)-(1H-imidazol-4-ylmethyl)-amine], the Ki amounted to 0.006 µM.

The Ki is a measure of affinity in units of concentration, obtained from inhibition or displacement.
